From PubChem BioAssay AID330 (DTP/NCI, 2004)
Where “and” joins values, the source holds several entries; their conditions need not be identical. Equal entries are not always repeated. Toxic doses and inconclusive results are not listed. Rule for the calls: active = survival T/C of 150% or more; inactive = T/C below 125% in these data.

System: P388 leukemia ip, CD2F1 mice, survival T/C
Experiment: NCI In Vivo Anticancer Drug Screen. Data for tumor model P388 Leukemia (intraperitoneal) in CD2F1 (CDF1) mice
Conditions: endpoint: median survival time, higher = longer survival
Procedure, shortened: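 Mice carrying the transplanted tumor received test compound or vehicle. Survival was recorded in each group, and the value is the treated-group measurement divided by that of the vehicle-treated control group.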

[1] = dose: 100.0 mg/kg/injection, schedule: Q01DX001 (ip), vehicle: saline with Tween-80
[2] = dose: 200.0 mg/kg/injection, schedule: Q01DX001 (ip), vehicle: saline with Tween-80
[3] = dose: 60.0 mg/kg/injection, schedule: Q01DX005 (ip), vehicle: saline with Tween-80
[4] = dose: 120.0 mg/kg/injection, schedule: Q01DX005 (ip), vehicle: saline with Tween-80
[5] = dose: 240.0 mg/kg/injection, schedule: Q01DX005 (ip), vehicle: saline with Tween-80
[6] = dose: 100.0 mg/kg/injection, schedule: Q04DX003 (ip), vehicle: saline with Tween-80
[7] = dose: 200.0 mg/kg/injection, schedule: Q04DX003 (ip), vehicle: saline with Tween-80
[8] = dose: 100.0 mg/kg/injection, schedule: Q01DX009 (ip), vehicle: saline with Tween-80
[9] = dose: 200.0 mg/kg/injection, schedule: Q01DX009 (ip), vehicle: saline with Tween-80
[10] = dose: 50.0 mg/kg/injection, schedule: Q01DX009 (ip), vehicle: saline with Tween-80
[11] = dose: 100.0 mg/kg/injection, schedule: Q01DX001 (ip), vehicle: Klucel (hydroxypropylcellulose) (HPC)
[12] = dose: 6.25 mg/kg/injection, schedule: Q01DX005 (ip), vehicle: saline
[13] = dose: 12.5 mg/kg/injection, schedule: Q01DX005 (ip), vehicle: saline
[14] = dose: 25.0 mg/kg/injection, schedule: Q01DX005 (ip), vehicle: saline

Measured: T/C

O=c1cc(O)c1=O
inactive: dose: 0.78 mg/kg/injection, schedule: Q01DX009 (ip), vehicle: saline 96 % of control | dose: 1.56 mg/kg/injection, schedule: Q01DX009 (ip), vehicle: saline 109 % of control | dose: 3.13 mg/kg/injection, schedule: Q01DX009 (ip), vehicle: saline 91 % of control | dose: 6.25 mg/kg/injection, schedule: Q01DX009 (ip), vehicle: saline 98 % of control

CCCCCCCCCCCC(CCCCCCCCCC)CCCCCCCCCC
inactive: dose: 50.0 mg/kg/injection, schedule: Q01DX001 (ip), vehicle: saline with Tween-80 109 % of control | [1] 104 % of control | [2] 100 % of control

CC(=O)[O][Hg][O]C(C)=O
inactive: dose: 1.25 mg/kg/injection, schedule: Q01DX009 (ip), vehicle: saline with Tween-80 95 % of control

COc1cc(C2c3cc4c(cc3OC(C)(OC)C2C(C)=O)OCO4)cc(OC)c1OC (configuration not stated)
inactive: [3] 90 % of control | [4] 94 % of control | [5] 95 % of control

C[C@]12CCCC[C@@H]1CC[C@@H]1[C@@H]2[C@@H](O)C[C@@]2(C)[C@H]1CC[C@]2(C)O
inactive: [6] 100 % of control | [7] 100 % of control

CN(C)[C@@H]1C(=O)C(C(=O)NCc2nc3[nH]cnc(=S)c3[nH]2)=C(O)[C@@]2(O)C(=O)C3=C(O)c4c(O)cccc4[C@@](C)(O)[C@H]3C[C@@H]12
inactive: [8] 100 % of control | [6] 95 % of control | [9] 100 % of control | [7] 95 % of control | dose: 400.0 mg/kg/injection, schedule: Q01DX009 (ip), vehicle: saline with Tween-80 110 % of control | dose: 400.0 mg/kg/injection, schedule: Q04DX003 (ip), vehicle: saline with Tween-80 100 % of control

ClCC1CSC(c2ccccc2)O1 (configuration not stated)
inactive: [10] 90 % of control | [8] 109 % of control | [9] 101 % of control

CC(=O)Nc1ccc(S(=O)(=O)NC(CCC(N)=O)C(=O)O)cc1 (configuration not stated)
inactive: [11] 95 % of control | dose: 200.0 mg/kg/injection, schedule: Q01DX001 (ip), vehicle: Klucel (hydroxypropylcellulose) (HPC) 100 % of control | dose: 400.0 mg/kg/injection, schedule: Q01DX001 (ip), vehicle: Klucel (hydroxypropylcellulose) (HPC) 92 % of control

COc1ccc(/C=C/C(CCN(C)C)=N/NC(=S)Nc2ccc(Br)cc2)cc1
inactive: [1] 101 % of control | [2] 96 % of control | dose: 400.0 mg/kg/injection, schedule: Q01DX001 (ip), vehicle: saline with Tween-80 105 % of control

CSC(=S)/C(=C(/[O-])c1ccccc1)[n+]1cccc(C)c1
inactive: dose: 2.5 mg/kg/injection, schedule: Q04DX002 (ip), vehicle: saline with Tween-80 99 % of control | dose: 5.0 mg/kg/injection, schedule: Q04DX002 (ip), vehicle: saline with Tween-80 106 % of control | dose: 10.0 mg/kg/injection, schedule: Q04DX002 (ip), vehicle: saline with Tween-80 106 % of control

N#Cc1c2c(c(=S)n(-c3ccc(Cl)cc3)c1N)CCCC2
inactive: dose: 60.0 mg/kg/injection, schedule: Q01DX005 (ip), vehicle: Klucel + Tween-80 92 % of control | dose: 120.0 mg/kg/injection, schedule: Q01DX005 (ip), vehicle: Klucel + Tween-80 91 % of control | dose: 240.0 mg/kg/injection, schedule: Q01DX005 (ip), vehicle: Klucel + Tween-80 91 % of control

CC(C(=O)c1cc(Cl)cc(Cl)c1O)C1(O)C(=O)Nc2ccccc21 (configuration not stated)
inactive: [3] 107 % of control | [4] 100 % of control | [5] 99 % of control

Cc1cc(NS(=O)(=O)c2ccc(N=Nc3c(O)n(-c4ccccc4)n(-c4ccccc4)c3=O)cc2)no1
inactive: dose: 50.0 mg/kg/injection, schedule: Q01DX009 (ip), vehicle: Klucel (hydroxypropylcellulose) (HPC) 102 % of control | dose: 100.0 mg/kg/injection, schedule: Q01DX009 (ip), vehicle: Klucel (hydroxypropylcellulose) (HPC) 100 % of control | dose: 200.0 mg/kg/injection, schedule: Q01DX009 (ip), vehicle: Klucel (hydroxypropylcellulose) (HPC) 92 % of control

CC(C)N1COC2Cc3ccccc3CC21 (configuration not stated)
inactive: [12] 99 % of control | [13] 101 % of control | [14] 101 % of control and 110 % of control | dose: 50.0 mg/kg/injection, schedule: Q01DX005 (ip), vehicle: saline 117 % of control and 120 % of control and 121 % of control

CCC(CO)N=C(C1=C(O)c2ccccc2C1=O)c1ccccc1 (configuration not stated)
inactive: dose: 100.0 mg/kg/injection, schedule: Q04DX002 (ip), vehicle: saline with Tween-80 104 % of control | dose: 200.0 mg/kg/injection, schedule: Q04DX002 (ip), vehicle: saline with Tween-80 92 % of control

Clc1ccc(C(c2ccccc2)N2CCNCC2)cc1 (configuration not stated)
inactive: dose: 25.0 mg/kg/injection, schedule: Q04DX003 (ip), vehicle: saline with Tween-80 99 % of control | dose: 50.0 mg/kg/injection, schedule: Q04DX003 (ip), vehicle: saline with Tween-80 113 % of control | [6] 102 % of control

COc1cc(N)c2ncccc2c1Br
inactive: dose: 50.0 mg/kg/injection, schedule: Q01DX005 (ip), vehicle: Klucel (hydroxypropylcellulose) (HPC) 100 % of control | dose: 100.0 mg/kg/injection, schedule: Q01DX005 (ip), vehicle: Klucel (hydroxypropylcellulose) (HPC) 104 % of control | dose: 200.0 mg/kg/injection, schedule: Q01DX005 (ip), vehicle: Klucel (hydroxypropylcellulose) (HPC) 97 % of control

COC(=O)c1nc(N)nc(C(=O)OC)c1C(=O)c1cccnc1
inactive: dose: 60.0 mg/kg/injection, schedule: Q01DX005 (ip), vehicle: Klucel (hydroxypropylcellulose) (HPC) 95 % of control | dose: 120.0 mg/kg/injection, schedule: Q01DX005 (ip), vehicle: Klucel (hydroxypropylcellulose) (HPC) 93 % of control

C=C1C(=O)OC2/C=C(\C)CC(OC(C)=O)/C=C(/CO)CC(OC(=O)/C(C)=C/C)C12 (configuration not stated)
inactive: dose: 3.75 mg/kg/injection, schedule: Q01DX009 (ip), vehicle: saline + alcohol 90 % of control | dose: 7.5 mg/kg/injection, schedule: Q01DX009 (ip), vehicle: saline + alcohol 98 % of control | dose: 15.0 mg/kg/injection, schedule: Q01DX009 (ip), vehicle: saline + alcohol 93 % of control | dose: 30.0 mg/kg/injection, schedule: Q01DX009 (ip), vehicle: saline + alcohol 86 % of control

O/C(=C(\c1ccccc1)n1ncc2c1OCCC2)c1ccccc1
inactive: dose: 50.0 mg/kg/injection, schedule: Q01DX001 (ip), vehicle: Klucel (hydroxypropylcellulose) (HPC) 94 % of control | [11] 95 % of control

O=C(OCCOc1ccc(C(F)(F)F)cc1[N+](=O)[O-])c1ccc(Cl)cc1Cl
inactive: dose: 15.0 mg/kg/injection, schedule: Q01DX005 (ip), vehicle: saline with Tween-80 90 % of control | dose: 30.0 mg/kg/injection, schedule: Q01DX005 (ip), vehicle: saline with Tween-80 91 % of control | [3] 88 % of control

O=C1c2ccccc2-c2c1nc1ccccc1[n+]2[O-]
inactive: [12] 102 % of control | [13] 103 % of control | [14] 96 % of control

O=C1CC[C@@H]2CCCC[C@@H]2C1
inactive: dose: 12.5 mg/kg/injection, schedule: Q01DX009 (ip), vehicle: saline sonified 104 % of control | dose: 25.0 mg/kg/injection, schedule: Q01DX009 (ip), vehicle: saline sonified 118 % of control | dose: 50.0 mg/kg/injection, schedule: Q01DX009 (ip), vehicle: saline sonified 100 % of control

CN1C(=O)C(O)(CC(=O)c2ccccc2)c2ccccc21 (configuration not stated)
inactive: [10] 93 % of control | [8] 93 % of control | [9] 90 % of control
